In PubChem BioAssay AID1963836 (Molecular Pharmacology Branch, DTP, NCI, 2024):

Test system: 857933-349-R-J2-PDC complex spheroid viability
Experiment: Anticancer human tumor 857933-349-R-J2-PDC patient-derived colon adenocarcinoma cell line growth inhibition [POLQ]
Details: for IC50: curve of first compound; for viability, T/C: stronger effect = lower value; active = viability on the fitted dose curve at most 10% of control; inactive = the rest
Procedure, shortened: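 Patient-derived tumour cells were co-cultured with HUVEC and mesenchymal stem cells as multicellular spheroids at 37 °C. They were treated with POLQ inhibitors (novobiocin, ART-558, RP6685) alone or combined with other agents. Top concentrations were at or near clinical Cmax (otherwise 10 microM; SN-38 at 1 microM), decreasing in half-log steps.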

[1] = second compound 0.0316 µM, first compound 0.0316 µM
[2] = second compound 0.0316 µM, first compound 0.1 µM
[3] = second compound 0.0316 µM, first compound 0.316 µM
[4] = second compound 0.0316 µM, first compound 1 µM
[5] = second compound 0.0316 µM, first compound 3.16 µM
[6] = second compound 0.0316 µM, first compound 10 µM
[7] = second compound 0.1 µM, first compound 0.0316 µM
[8] = second compound 0.1 µM, first compound 0.1 µM
[9] = second compound 0.1 µM, first compound 0.316 µM
[10] = second compound 0.1 µM, first compound 1 µM
[11] = second compound 0.1 µM, first compound 3.16 µM
[12] = second compound 0.1 µM, first compound 10 µM
[13] = second compound 0.316 µM, first compound 0.0316 µM
[14] = second compound 0.316 µM, first compound 0.1 µM
[15] = second compound 0.316 µM, first compound 0.316 µM
[16] = second compound 0.316 µM, first compound 1 µM
[17] = second compound 0.316 µM, first compound 3.16 µM
[18] = second compound 0.316 µM, first compound 10 µM
[19] = second compound 1 µM, first compound 0.0316 µM
[20] = second compound 1 µM, first compound 0.1 µM
[21] = second compound 1 µM, first compound 0.316 µM
[22] = second compound 1 µM, first compound 1 µM
[23] = second compound 1 µM, first compound 3.16 µM
[24] = second compound 1 µM, first compound 10 µM
[25] = second compound 3.16 µM, first compound 0.0316 µM
[26] = second compound 3.16 µM, first compound 0.1 µM
[27] = second compound 3.16 µM, first compound 0.316 µM
[28] = second compound 3.16 µM, first compound 1 µM
[29] = second compound 3.16 µM, first compound 3.16 µM
[30] = second compound 3.16 µM, first compound 10 µM
[31] = second compound 10 µM, first compound 0.0316 µM
[32] = second compound 10 µM, first compound 0.1 µM
[33] = second compound 10 µM, first compound 0.316 µM
[34] = second compound 10 µM, first compound 1 µM
[35] = second compound 10 µM, first compound 3.16 µM
[36] = second compound 10 µM, first compound 10 µM
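Also: spheroids exposed to compounds for seven days before readout.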

C=CC(=O)N1CCN(c2nc(=O)n(-c3c(C)ccnc3C(C)C)c3nc(-c4c(O)cccc4F)c(F)cc23)C(C)C1 (stereo unspecified) + COC1C(OC(N)=O)C(O)C(Oc2ccc3c(O)c(NC(=O)c4ccc(O)c(CC=C(C)C)c4)c(=O)oc3c2C)OC1(C)C
inactive: viability, T/C [1] 105% | viability, T/C [2] 104% | viability, T/C [3] 103% | viability, T/C [4] 107% | viability, T/C [5] 88.5% | viability, T/C [6] 102% | viability, T/C [7] 94.4% | viability, T/C [8] 88.7% | viability, T/C [9] 79.5% | viability, T/C [10] 110% | viability, T/C [11] 104% | viability, T/C [12] 77% | viability, T/C [13] 96.1% | viability, T/C [14] 110% | viability, T/C [15] 102% | viability, T/C [16] 98.2% | viability, T/C [17] 100% | viability, T/C [18] 74.9% | viability, T/C [19] 101% | viability, T/C [20] 108% | viability, T/C [21] 81.3% | viability, T/C [22] 109% | viability, T/C [23] 99.2% | viability, T/C [24] 93.3% | viability, T/C [25] 98.1% | viability, T/C [26] 116% | viability, T/C [27] 126% | viability, T/C [28] 99.3% | viability, T/C [29] 111% | viability, T/C [30] 71.4% | viability, T/C [31] 104% | viability, T/C [32] 73% | viability, T/C [33] 118% | viability, T/C [34] 97.4% | viability, T/C [35] 82.2% | viability, T/C [36] 99.8%
> 10 µM: IC50 (second compound 0.0316 µM) | IC50 (second compound 0.1 µM) | IC50 (second compound 0.316 µM) | IC50 (second compound 1 µM) | IC50 (second compound 3.16 µM) | IC50 (second compound 10 µM)

CC(C)n1c(=O)n(C)c2cnc3cc(F)c(-c4ccc(OCCCN5CCCCC5)nc4)cc3c21 + Nc1ccc(C#CCN(C(=O)Cc2ncc(C(F)(F)F)cc2C(F)(F)F)c2ccc(F)cc2)nn1
inactive: viability, T/C [1] 88.3% | viability, T/C [2] 89% | viability, T/C [3] 103% | viability, T/C [4] 106% | viability, T/C [5] 93.7% | viability, T/C [6] 98.8% | viability, T/C [7] 99.5% | viability, T/C [8] 109% | viability, T/C [9] 111% | viability, T/C [10] 116% | viability, T/C [11] 118% | viability, T/C [12] 100% | viability, T/C [13] 108% | viability, T/C [14] 106% | viability, T/C [15] 103% | viability, T/C [16] 98.7% | viability, T/C [17] 105% | viability, T/C [18] 98% | viability, T/C [19] 107% | viability, T/C [20] 95.9% | viability, T/C [21] 107% | viability, T/C [22] 114% | viability, T/C [23] 95.2% | viability, T/C [24] 84.7% | viability, T/C [25] 91.7% | viability, T/C [26] 99.9% | viability, T/C [27] 103% | viability, T/C [28] 115% | viability, T/C [29] 111% | viability, T/C [30] 91.5% | viability, T/C [31] 86.4% | viability, T/C [32] 102% | viability, T/C [33] 114% | viability, T/C [34] 89.3% | viability, T/C [35] 98.1% | viability, T/C [36] 92.6%
> 10 µM: IC50 (second compound 0.0316 µM) | IC50 (second compound 0.1 µM) | IC50 (second compound 0.316 µM) | IC50 (second compound 1 µM) | IC50 (second compound 3.16 µM) | IC50 (second compound 10 µM)

CNCc1ccc(-c2[nH]c3cc(F)cc4c3c2CCNC4=O)cc1 + COC1C(OC(N)=O)C(O)C(Oc2ccc3c(O)c(NC(=O)c4ccc(O)c(CC=C(C)C)c4)c(=O)oc3c2C)OC1(C)C
inactive: viability, T/C [1] 85.1% | viability, T/C [2] 90% | viability, T/C [3] 93.8% | viability, T/C [4] 89.9% | viability, T/C [5] 87.1% | viability, T/C [6] 69.5% | viability, T/C [7] 103% | viability, T/C [8] 87.7% | viability, T/C [9] 88.9% | viability, T/C [10] 117% | viability, T/C [11] 99.2% | viability, T/C [12] 106% | viability, T/C [13] 88.5% | viability, T/C [14] 96.9% | viability, T/C [15] 102% | viability, T/C [16] 111% | viability, T/C [17] 103% | viability, T/C [18] 92.3% | viability, T/C [19] 97.2% | viability, T/C [20] 97.2% | viability, T/C [21] 67.9% | viability, T/C [22] 83.5% | viability, T/C [23] 117% | viability, T/C [24] 103% | viability, T/C [25] 82.5% | viability, T/C [26] 102% | viability, T/C [27] 90.3% | viability, T/C [28] 87.2% | viability, T/C [29] 104% | viability, T/C [30] 88.8% | viability, T/C [31] 66.3% | viability, T/C [32] 92.3% | viability, T/C [33] 84.3% | viability, T/C [34] 74.9% | viability, T/C [35] 95.3% | viability, T/C [36] 90.5%
> 10 µM: IC50 (second compound 0.0316 µM) | IC50 (second compound 0.1 µM) | IC50 (second compound 0.316 µM) | IC50 (second compound 1 µM) | IC50 (second compound 3.16 µM) | IC50 (second compound 10 µM)
